Reference: US8652442B2, “Bioluminescence imaging of myeloperoxidase activity in vivo, methods, compositions and apparatuses therefor” (Washington University, priority 2008, dated 2014)
Where two headings read alike, the source gives them in different places.

How the values were obtained:
[1] = system: PMA-stimulated whole blood
Procedure: Blood was freshly drawn (100-300 μL, by jugular puncture) from MPO^−/− or control MPO^+/+ mice. Blood was stored for up to 6 h in heparinized tubes at room temperature. Ex vivo BLI experiments using whole blood were performed in black-coated 96-well plates. Briefly, 1 μL of blood was diluted in 200 μL of MEBSS supplemented with luminol (100 μM), in the absence or presence of increasing concentrations of 4-ABAFT (0-6.6 mM), L-NMMA (1 mM) or DPI (10 μM). Samples were imaged (exposure time, 60 sec; binning, 4; FOV, 10 cm; open filter) before (t=0) and at the indicated time points after stimulation with PMA (5 μM) or vehicle (DMSO, 1 μL). Photon fluxes±s.e.m. were plotted as a function of time post PMA (min) or concentration of inhibitor.
Luminol-oxidation can be visualized by bioluminescence imaging and is dependent on MPO activity in vitro. Luminol-dependent BL of stimulated phagocytes and whole blood has been extensively studied using photo-multiplier tube (PMT)-based luminometers. To determine whether BLI could be similarly used to detect oxidant production in biological material, we used a charge-coupled device (CCD)-based bioluminescence imaging system to monitor phagocyte activation in heparinized whole blood (1 μL). Fresh heparinized whole blood (1 μL) was incubated with luminol (100 μM) in MEBSS (200 μL). […] Images show sequential color-coded maps of photon flux superimposed on black & white photographs of the assay plates (FIG. 1b).
It is important to note that metals such as iron are highly abundant in blood, but are confined to specific cellular compartments, i.e., hemoglobin in erythrocytes or cytochromes in mitochondrial membranes. […] At t=0, PMA was added to a final concentration of 5 μM and BL was monitored for 60 min at 7.5 min intervals.
To determine the relative contribution of other ROS to the BL signal induced by luminol in stimulated blood ex vivo, we focused on two enzymatically-catalyzed ROS products, O2.- and NO., generated by the Phox complex and nitric oxide synthase (NOS), respectively, as well as their reaction product, peroxynitrite (ONOO^−). Freshly-drawn blood (1 μL) from an MPO^+/+ mouse was incubated with the NOS inhibitor L-NMMA (1 mM) or the Phox inhibitor DPI (10 μM), respectively, and imaged 20 min after stimulation with PMA (5 μM).

MPO [2] = target: T1, MPO (Homo sapiens, UniProt P05164); experiment: Dye stability: absorption spectra after treatment with H2O2 and MPO; type: physicochemical; parameters: purchased Calbiochem; conditions: H2O2 and MPO in Tris buffer, 30, 60 and 90 min
T1 sequence (P05164 279-745 limits assumed): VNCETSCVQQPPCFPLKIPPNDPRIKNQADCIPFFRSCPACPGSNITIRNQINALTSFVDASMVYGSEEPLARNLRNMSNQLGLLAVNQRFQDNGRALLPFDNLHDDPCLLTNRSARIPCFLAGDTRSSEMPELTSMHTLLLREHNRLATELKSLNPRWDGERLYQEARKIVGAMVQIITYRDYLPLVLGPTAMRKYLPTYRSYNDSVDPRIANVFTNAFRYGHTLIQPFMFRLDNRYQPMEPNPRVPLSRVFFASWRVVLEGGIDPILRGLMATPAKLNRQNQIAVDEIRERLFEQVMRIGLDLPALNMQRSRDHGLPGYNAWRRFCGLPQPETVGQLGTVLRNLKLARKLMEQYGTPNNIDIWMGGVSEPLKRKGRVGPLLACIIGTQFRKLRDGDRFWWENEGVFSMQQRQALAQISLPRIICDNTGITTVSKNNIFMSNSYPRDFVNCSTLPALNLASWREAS
T1 sequence (P05164 165-273 limits assumed): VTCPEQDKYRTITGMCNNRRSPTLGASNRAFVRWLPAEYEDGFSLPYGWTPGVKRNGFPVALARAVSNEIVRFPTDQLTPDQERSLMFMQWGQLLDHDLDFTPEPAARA
Procedure: In these experiments, absorption spectra were collected for Texas Red (TXR) and Infrared Dye 820 (IRD) treated with H2O2 and MPO (5 mU) in Tris buffer solution for 30 min, 60 min and 90 min as indicated. […] In these experiments, absorption spectra were collected (RLU vs nm wavelength) of Texas Red (TXR) and Infrared Dye 820 (IRD) treated with H2O2 and MPO ([…]) in Tris buffer solution for 30 min, 60 min and 90 min as indicated. (FIG. 17). […] (FIG. 18). […] Thus, in vitro NIR bioluminescence can be used to study dye and fluorophore stability under various experimental conditions. […]

MPO activity [3] = experiment: BLI of allergic contact hypersensitivity with topical LGTR or luminol, optical filter sets; type: in vivo, mice
Procedure: Thirty min later, mice were simultaneously imaged in the IVIS 100 imaging system (FOV, 10 cm; binning, 8; acquisition time, 300 sec; f/stop, 1) using four different optical filter sets in rapid sequence: 1) no filter, 2) <510 nm filter, 3) >590 nm filter, and 4) >650 nm filter (FIG. 22, FIG. 23). The photon flux as a percentage of an open filter was compared for both compounds (FIG. 23).
Briefly, murine anti-DNP IgE (20 μg, 100 μl) was intravenously injected to two C57/B mice.
Administration of luminol derivatives and imaging: Forty-eight hours post DNFB treatment, luminol-glycine Texas Red (LGTR, 1 mM in DMSO, left mouse) or luminol (1 mM In DMSO, right mouse) were applied topically (45 μl per ear) on both left and right ears. Thirty minutes later, mice were simultaneously imaged using the IVIS 100 imaging system (FOV 10 cm; binning, 8; acquisition time. 300 sec; f/stop, 1) using four different optical filler sets: (1) no filter, (2)<510 nm filler, (3)>590 nm filter and (4)>650 nm filter.

purified MPO = target: T2, purified MPO (Homo sapiens, UniProt P05164); experiment: Output of LGTR and luminol in vitro with purified MPO and H2O2; type: biochemical; conditions: for light output: purified MPO mixed with 100% serum rather than MEBSS
T2 construct: purchased Calbiochem
T2 sequence (P05164 279-745 limits assumed): as the sequence (P05164 279-745 limits assumed) above
T2 sequence (P05164 165-273 limits assumed): as the sequence (P05164 165-273 limits assumed) above
From the text: To analyze the output of LGTR and luminol in vitro, […] of each were mixed with purified MPO (5 mU) and vehicle (MEBSS).

human blood = experiment: Ex vivo BLI of LGTR and luminol in human whole blood after PMA stimulation; type: cell-based
Procedure: For analysis of LGTR in whole blood, human blood was freshly drawn from a volunteer (by venous puncture). Blood was stored for up to 6 h in heparinized tubes at room temperature. Ex vivo BLI experiments using whole blood were performed in black-coated 96-well plates. Briefly, 200 μL of blood was added to the wells. LGTR, luminol, or DMSO ([…] of each) were added to the wells. Samples were imaged (exposure time, 160 sec; binning, 8; FOV, 10 cm; open filter or >590 nm) before (t=0) and at the indicated time points after stimulation with PMA (5 μM) or vehicle (ethanol, 1 μL). Photon fluxes±s.e.m. were plotted as a function of time post PMA (min) (FIG. 19). […] In addition, to isolate the buffy coat (white cells), whole blood was centrifuged at 700 rpm for 8 min, and subjected to the same analysis.

MPO [4] = target: T1, MPO
Procedure: Matrigel was used to immobilize human MPO and/or GOX (that produces H2O2) in vivo (Chen, J. W., et al., Radiology 240, 473-481, 2006). Briefly, GOX (30 U), MPO (20 U), vehicle (PBS) or GOX+MPO (30 and 20 U, respectively) were added to Matrigel (200 μL) at 4° C. The four different mixtures were injected subcutaneously into different locations on the back of NCr nu/nu mice. Thirty minutes later, mice were anesthetized (isoflurane inhalation), administered luminol (200 mg/kg BW, i.p.) and imaged sequentially (exposure time, 60 sec; binning, 4; FOV, 7.5 cm) every 5 minutes up to one hour. Regions of interest (ROI) were manually selected over the four implants and total photon emissions from each implant were plotted as a function of time.
We next determined the biochemical requirements and pharmacokinetics of luminol-BL in an intact animal and whether MPO activity could be imaged in vivo. […] We embedded GOX (30 U), MPO (20 U); MPO+GOX (same concentrations) or vehicle (PBS) in Matrigel solution and established subcutaneous implants of these mixtures on the backs of NCR nu/nu mice (n=3, FIG. 2a).
Photon fluxes were determined from ROI's, manually drawn over the different implants and plotted as a function of time.

MPO activity [5] = conditions: mouse, in vivo
Procedure: To induce acute skin inflammation (Fretland, D. J. et al. Inflammation 19, 333-346, 1995), PMA (100 μM, 20 μL) or vehicle (ethanol) were applied topically (left and right ear, respectively) on the inner and outer surface of the earlobe of MPO^−/− (n=5) or control (n=5) mice. Twenty-four and 48 hours later, luminol was administered (200 mg/kg BW, i.p.) and 10 min later mice were imaged (exposure time, 180 see; binning, 4; FOV, 7.5 cm) under anesthesia (isoflurane inhalation). ROI's were manually selected over the left and right ear lobes (PMA-treated and untreated, respectively) and over the central part of the skull (background). Data were expressed as (PMA—background)/(vehicle—background)±s.e.m.
Topical application of PMA onto the earlobes of mice induces acute dermatitis, manifested by local swelling, erythema and infiltration of neutrophils. […] We therefore used this model for assessment of MPO activity by luminol-BLI in both MPO^+/+ and MPO^−/− mice. Acute dermatitis was generated by topical application of PMA on the left ear lobe of MPO^+/+ or MPO^−/− mice (shown are three representative mice for each genetic background, n=5 for each). Twenty-four hours after topical application of PMA, mice were imaged (FIG. 3a) following the administration of luminol (200 mg/kg BW, i.p.).

MPO activity [6] = conditions: mouse, in vivo; remark: listed apart in the source
Procedure: MPO^−/− (n=5) or control MPO^+/+ (n=5) mice were briefly anaesthetized (isoflurane inhalation) and LPS (20 μg in 20 μL PBS) or vehicle (PBS, 20 μL) were injected into the left or right ankles, respectively, using a 30-gauge needle. Mice were administered luminol (as above) and imaged immediately after LPS administration under anesthesia (isoflurane inhalation), as well as 1, 2, 3, 4 and 5 days later (exposure time, 180 sec; binning, 4; FOV, 10 cm). ROIs were manually selected over the left and right feet (LPS-treated and untreated, respectively) and over the proximal part of the tail (background). Data were expressed as (LPS—background)/(vehicle—background)±s.e.m.
We next imaged MPO activity in a focal arthritis model. […] LPS was injected to the joints of the left lower limbs of wild type MPO^+/+ (FIG. 3b, left panel, n=5) or MPO^−/− mice (FIG. 3b, right panel, n=5). Vehicle (PBS) was injected into the joints of the right lower limbs. At t=0 (before LPS injection), 24, 48, 72, 96 and 120 h, luminol was administered (200 mg/kg BW, i.p.) and mice were imaged.

MPO activity [7] = conditions: 24 h after DNFB, luminol 200 mg/kg BW i.p.
Procedure: Briefly, murine anti-DNP IgE (20 μg in 100 μl, Sigma-Aldrich) was injected intravenously into 13 MPO^+/+ and 9 MPO^−/− mice. One control mouse of each genetic MPO background was injected with vehicle (saline) only. Twenty-four hours later, all left ears were painted with DNFB (0.2% in acetone:olive oil, 1:3) and all right ears were painted with vehicle (acetone:olive oil, 1:3). On the next day, all mice were imaged following luminol administration (200 mg/kg BW, i.p.). Mice were euthanized immediately after imaging and histological specimens were prepared from both left and right ears by fixation with paraformaldehyde (4%), de-calcification (24 h in 14% EDTA), paraffin-embedding, sectioning (5 μm) and staining with H&E. For each condition, eosinophils were counted in 5 HPF (magnification ×400).
Eosinophil-dominant recruitment and activation was induced by passive immunization against DNP followed by topical challenge with DNFB (Ray, M., et al., J. Immunol. 131, 1096-1102, 1983) in both MPO+/+ control as well as MPO^−/− mice. […] Acute allergic dermatitis was induced by passive immunization with anti-DNP IgE and topical challenge with DNFB on the left ear lobes of MPO^+/+ (n=14) and MPO^−/− (n=10) mice. Right ears served as vehicle controls and mice challenged with DNFB, but not anti-DNP IgE, served as negative controls. […]

MPO activity [8] = conditions: mouse, in vivo; remark: listed apart in the source
Procedure: GzB→Tax mice were monitored for tumorigenesis on ears, limbs and tails by visual examination and palpation, weekly, for 200-300 days after birth. Ten mice with visible tumors at various sizes (1-8 mm in diameter) and locations were administered luminol (200 mg/kg BW, i.p.) and imaged (exposure time, 300 sec; binning, 4; FOV, 10 cm) under anesthesia (isoflurane inhalation). Tumors were excised, fixed in paraformaldehyde (4%), paraffin-embedded, sectioned (5 μm) and stained with H&E or immuno-stained for MPO (see below).
We next used BLI to examine tumor-bearing GzB→Tax mice after intraperitoneal administration of luminol (200 mg/kg BW, i.p., FIG. 5 c-g).

[9] = systemic administration; cited from earlier work
[10] = whole blood 1 μL, luminol 100 μM, PMA 5 μM

With c1ccc2c(c1)[I+]c1ccccc1-2 [DPI, diphenyleneiodonium] the “effect on PMA-induced BL” value ([1]; DPI 10 μM, MPO+/+ mouse blood, imaged 20 min after PMA 5 μM) was “complete abrogation”.
In the case of CC1(C)C(=CC=C2CCCC(C=CC3=[N+](CCCCS(=O)(=O)[O-])c4ccc5ccccc5c4C3(C)C)=C2Cl)N(CCCCS(=O)(=O)[O-])c2ccc3ccccc3c21.[Na+] [IRD], the “stability on exposure to MPO over time” value (MPO [2]) was “loss of IRD molecular integrity over time”.
With CN=C(N)NCCC[C@H](N)C(=O)O.O=C(O)CC(O)(CC(=O)O)C(=O)O [L-NMMA, L-N^G-monomethyl arginine citrate] the “effect on luminol-dependent BL” value ([1]; L-NMMA 1 mM, MPO+/+ mouse blood, imaged 20 min after PMA 5 μM) was “did not cause a significant reduction”.
For O=C(CCCCCNS(=O)(=O)c1ccc(C2=c3cc4c5c(c3Oc3c2cc2c6c3CCCN6CCC2)CCC[N+]=5CCC4)c(S(=O)(=O)[O-])c1)NCC(=O)Nc1cccc2c(=O)[nH][nH]c(=O)c12 [LGTR], the “BL after induction of acute contact hypersensitivity” value (MPO activity [3]; MPO+/+ mice, 1 mM in DMSO topical, 45 μl per ear) was “substantial LGTR-BL”, the “photon flux compared with luminol” value (MPO activity [3]; filters >590 and 650 nm, topical 1 mM in DMSO) was 3-4 fold and the “percent of the signal greater than 590 nm (red spectrum)” value (purified MPO; purified MPO 5 mU in MEBSS buffer, H2O2 50 μM) was about 75%. For the same compound, the “brightness compared with luminol” value (purified MPO; purified MPO in MEBSS buffer) was “brighter than luminol”, the light output (purified MPO) was “no light output” and the “signal over the luminol signals” value (human blood; early time points in whole blood) was “greater than 75%”. The “fraction of signal that was red (>590 nm)” value (human blood; human whole blood, 12 min post PMA stimulation) was “greater than 75%”.
For Nc1cccc2c(=O)[nH][nH]c(=O)c12 [luminol, 5-amino-2,3-dihydro-1,4-phthalazine-dione], the signal-to-background ratio ([1]; few thousand phagocytes in 1 μL whole blood) was over 30, the “luminol-BL with whole blood of MPO−/− mice” value ([1]; luminol 100 μM, PMA 5 μM, 0-55 min) was “undetectable” and the “peak BL over background values” [1, 10] was 30-40 fold. The “time of BL peak post stimulation” value [1, 10] was 20 to 25 min, the light output (purified MPO) was “no light output” and the photon output compared (human blood; human whole blood following PMA stimulation) was “exceeded LGTR”. The “signal-to-background ratio for luminol-BLI” value (MPO [4]; MPO+GOX Matrigel implants in vivo) was “exceeded 3000”, the “absorption upon i.p. injection” value (MPO [4]; luminol 200 mg/kg BW i.p.) was “rapidly absorbed” and the “time to maximum BL after injection” value (MPO [4]; luminol 200 mg/kg BW i.p., MPO+GOX implant, NCr nu/nu mice) was 10 min. The “BL of PMA-treated ears over vehicle-treated ears” value (MPO activity [5]) was 1.9±0.5 fold, the “background-normalized BL of PMA-treated ears over vehicle-treated ears” value (MPO activity [5]) was 13.1±0.2 fold and the “BL signal over background” value (MPO activity [6]) was 10 to 15 fold. For the same compound, the “luminol-BL from LPS- or vehicle-treated joints” value (MPO activity [6]) was “negligible”, the “peak BL emission, fold over vehicle-treated foot” value (MPO activity [6]) was 25 to 30 fold and the “luminol-BL signal from inflamed ears” value (MPO activity [7]; MPO+/+ mice) was “substantial luminol-BL”. For the same compound, the “luminol-BL signal from inflamed ears” value (MPO activity [7]; MPO−/− mice) was “no significant luminol-BL signal”, the “localization of luminol-BL in tumor-bearing mice” value (MPO activity [8]) was “colocalized with foci of tumorigenesis” and the absorption and excretion [9] was “well absorbed and rapidly excreted”. For the same compound, the toxicity [9] was “relatively non-toxic”.
With NCC(=O)Nc1cccc2c(=O)[nH][nH]c(=O)c12 [luminol-glycine, 2-Amino-N-(1,4-dioxo-1,2,3,4-tetrahydrophthalazine-5-yl)acetamide] the signal generated (purified MPO; control compound, purified MPO) was “no signal”.
